Values quoted from earlier work as cited in publication PMC12497738, “Linear and conformational epitopes of vicilin-buried peptides as a model for improved nut allergy diagnostics” (Frontiers in Allergy, 2025).
Entries after “also recorded” stand apart in the source; their conditions may differ.

Tested on: 6D12 monoclonal antibody
Settings: N-terminal helix, amino acids 21–36 of folded JR2.1; unpublished communications by Dr. Geoffrey Mueller (NIEHS); ref [16]
From the text: The mature vicilin domains in Figure 1A are labeled Jug r 2 and Ara h 1. A human monoclonal IgE antibody (6D12) was used to assess IgE binding to conformational epitopes in JR2LS and its three constituent VBPs using ciELISA (Figures 1B,C). […] With this method, a known immunodominant epitope of Ara h 2 was used to identify a cross-reactive, linear epitope in the JR2LS ([16]). The IgE binding regions identified in this study overlap or are near the previously described epitope containing areas, emphasizing the relevance of JR2LS VBPs as clinically relevant IgE targets ([16], [17]). Here, ELISA, linear peptide microarray, and computational analysis were used to ...

## CQEYCRRQGQGQRQQ [peptide 5, …, N-terminal helix, amino acids 21–36 of the folded JR2.1]
  Binding of 6D12 to peptide 5, in words: specific binding; also recorded: the primary target of 6D12
